Among the data in a compilation of properties of binary mixtures (doi:10.1016/j.fluid.2006.05.028) are electrical conductivity values, retold here.

The structures appear in SMILES notation.

The nature of the data set: xn = mol fraction of the nth substance listed. The conditions noted are these: 298.15 K, 101.3 kPa.

For `CCOS(=O)(=O)[O-].CC[n+]1ccn(C)c1` + O, the electrical conductivity runs as follows: (x1 = 0.004) 1.35 S/m; (x1 = 0.0084) 2.11 S/m; (x1 = 0.0133) 2.76 S/m; (x2 = 0.4084) 1.3 S/m; (x2 = 0.5931) 2.03 S/m; (x2 = 0.6983) 2.55 S/m. The electrical conductivity runs as follows: (x2 = 0.7663) 3.03 S/m; (x2 = 0.8139) 3.54 S/m; (x2 = 0.876) 4.14 S/m; (x2 = 0.8974) 4.31 S/m; (x2 = 0.9148) 4.41 S/m; (x2 = 0.9413) 4.43 S/m. The electrical conductivity by setting is: (x2 = 0.9516) 4.33 S/m; (x2 = 0.9606) 4.16 S/m.

As to `O` + CCOS(=O)(=O)[O-].CC[n+]1ccn(C)c1, under “x1 = 1”, the electrical conductivity amounted to 0.0026 S/m.

In turn, `[Br][Al]([Br])[Br]` + CC[n+]1ccccc1.[Br-] gave an electrical conductivity (x2 = 0.65) of 0.292 S/m.
